We go through three compounds from patent US7495126B2, “Process of preparation of substituted tetrafluorobenzylaniline compound and its pharmaceutically approved salts” (priority 2005, dated 2009).

Series [1] relates to SD (Sprague Dawley) male rats. Kind of series: Acute toxicity test in rats, single intravenous dose. The class given is in vivo. The following applies: for Number of dead animals/Number of drug-treated animals: 14 days after administration.
Test in series [2]: as above
It counts as in vivo. The conditions noted are these: male, Sprague-Dawley, rat, in vivo, iv; rats, single i.v. dose, 14 days; read-out: Estimated LD50.

The nature of another series: physchem. The class given is physicochemical. The following applies: 25 °C, water, thermodynamic from solid.
Series [3] in a line: Stability test of oral preparation (powder in vial, HPLC). The conditions noted are these: for Residual amount: powder (solid).
Description: It was then stored at different temperatures (25° C., 40° C., 60° C.) for 6 months and the amount of active ingredients in powder were measured by HPLC.
Series [4] can be described thus: Stability test of injectable preparation (salt in WFI, HPLC).

For `O=C(O)c1cc(NCc2c(F)c(F)c(C(F)(F)F)c(F)c2F)ccc1O` [free base form, 2-hydroxy-5-(2,3,5,6-tetrafluoro-4-trifluoromethyl-benzylamino)benzoic acid], the “Number of dead animals/Number of drug-treated animals” value in series [1] (52 mg/kg single i.v. dose) was 0/7; in series [1] (68 mg/kg single i.v. dose), 1/7; in series [1] (89 mg/kg single i.v. dose), 3/7; in series [1] (115 mg/kg single i.v. dose), 3/7; in series [1] (150 mg/kg single i.v. dose), 6/7; in series [1] (171 mg/kg single i.v. dose), 6/7. Besides, the “Number of dead animals/Number of drug-treated animals” value in series [1] (184 mg/kg single i.v. dose) and in series [1] (195 mg/kg single i.v. dose) was 7/7 throughout. Moreover, the LD50 at 14 day in series [2] is 115 to 150 mg/kg.

In the series “physchem”, `O=C([O-])c1cc(NCc2c(F)c(F)c(C(F)(F)F)c(F)c2F)ccc1O.[Li+]` [lithium salt, lithium 2-hydroxy-5-(2,3,5,6-tetrafluoro-4-trifluoromethyl-benzylamino)benzoate] returned a solubility at 48 h of 500 mg/mL. Moreover, the Residual amount in series [3] (25° C., day 0) came to 98.56 ± 0.89%; in series [3] (25° C., day 7) it was 98.32 ± 0.32%; in series [3] (25° C., day 14), 97.69 ± 2.58%; in series [3] (25° C., day 21) it was 96.87 ± 1.64%; in series [3] (25° C., day 30), 95.01 ± 1.10%; in series [3] (25° C., day 60), 94.78 ± 8.09%. The Residual amount in series [3] (25° C., day 120) worked out at 92.69 ± 1.03%; in series [3] (25° C., day 180), 90.85 ± 1.61%; in series [3] (40° C., day 0) it was 98.56 ± 0.89%; in series [3] (40° C., day 7) it was 98.16 ± 0.09%; in series [3] (40° C., day 14), 96.18 ± 3.28%; in series [3] (40° C., day 21), 96.02 ± 2.49%. In addition, the Residual amount worked out at 95.96 ± 0.89% in series [3] (40° C., day 30); 95.70 ± 6.88% in series [3] (40° C., day 60); 95.58 ± 1.38% in series [3] (40° C., day 120); 95.40 ± 2.37% in series [3] (40° C., day 180); 98.56 ± 0.89% in series [3] (60° C., day 0); 97.49 ± 0.80% in series [3] (60° C., day 7). Moreover, the Residual amount in series [3] (60° C., day 14) worked out at 96.45 ± 2.80%; in series [3] (60° C., day 21), 95.87 ± 2.09%; in series [3] (60° C., day 30) it was 95.69 ± 2.97%; in series [3] (60° C., day 60), 95.51 ± 1.99%; in series [3] (60° C., day 120), 94.84 ± 0.56%; in series [3] (60° C., day 180) it was 92.48 ± 3.14%.

Regarding `O=C([O-])c1cc(NCc2c(F)c(F)c(C(F)(F)F)c(F)c2F)ccc1O.[K+]` [potassium salt, potassium 2-hydroxy-5-(2,3,5,6-tetrafluoro-4-trifluoromethyl-benzylamino)benzoate], the Residual amount in series [4] (in WFI 2 mg/ml, 25° C., day 7) turned out to be 103.92 ± 1.20%; in series [3] (25° C., day 0), 100.43 ± 0.30%; in series [3] (25° C., day 30), 100.31 ± 0.25%; in series [3] (25° C., day 60), 100.20 ± 0.55%; in series [3] (25° C., day 90), 100.17 ± 0.46%; in series [3] (25° C., day 120), 100.07 ± 0.43%. Besides, the Residual amount in series [3] (25° C., day 180) was found to be 100.03 ± 0.80%; in series [3] (40° C., day 0), 100.43 ± 0.30%; in series [3] (40° C., day 30), 100.28 ± 1.10%; in series [3] (40° C., day 60), 100.14 ± 0.80%; in series [3] (40° C., day 90), 100.10 ± 0.71%; in series [3] (40° C., day 120), 99.81 ± 0.78%. In addition, the Residual amount in series [3] (40° C., day 180) came to 99.78 ± 0.31%; in series [3] (60° C., day 0), 100.43 ± 0.30%; in series [3] (60° C., day 30), 99.60 ± 0.50%; in series [3] (60° C., day 60) it was 99.56 ± 0.85%; in series [3] (60° C., day 90) it was 99.27 ± 0.80%; in series [3] (60° C., day 120), 99.03 ± 0.90%. The same compound displayed a Residual amount in series [3] (60° C., day 180) of 98.87 ± 0.92%. For the same compound, the “stability profile in injectable preparation” value in series [4] (in WFI, 25-60° C., 6 months) was “better than that of sodium- and lithium-salt compound”. In addition, the “Number of dead animals/Number of drug-treated animals” value was 0/6 in series [1] (50 mg/kg single i.v. dose); 0/6 in series [1] (100 mg/kg single i.v. dose); 0/6 in series [1] (150 mg/kg single i.v. dose); 0/6 in series [1] (200 mg/kg single i.v. dose); 3/3 in series [1] (250 mg/kg single i.v. dose); 1/1 in series [1] (300 mg/kg single i.v. dose). In addition, in series [1] (500 mg/kg single i.v. dose), the “Number of dead animals/Number of drug-treated animals” value is 2/2. Besides, the “toxicity compared with free base” value in series [1] (rats, i.v., Tables 7-9) was “less toxicity than free base”. Besides, in series [2], the LD50 at 14 day was 200 to 250 mg/kg. The compound further returned a solubility at 48 h in “physchem” of 590 mg/mL. Further, the “stability in powder form” value in series [3] (high temperatures) is “relatively stable in high temperatures”.

Usually LD50 stands for the dose expected to kill half of the subjects tested. A word on the solubility: it is how much of the substance goes into solution per volume. High values mean much dissolved substance, low ones little dissolved substance.
